Consider 15 compounds from BindingDB's records for doi:10.1021/jm000468c (Abbott Laboratories, 2001).

SMILES strings stand for the structures.

This test can be described thus: Inhibitory activity was determined against Neuraminidase A from influenza virus A/Tokyo/3/67.
For the compound `CCCN(CCC)C(=O)N1C[C@H](N)[C@H](C(=O)O)C1` [4-Amino-1-dipropylcarbamoyl-pyrrolidine-3-carboxylic acid], the IC50 (commonly the concentration needed to halve the response being measured) stood at 32 µM. `CC(C)N(CCO)C(=O)N1C[C@H](N)[C@H](C(=O)O)C1` [4-Amino-1-[(2-hydroxy-ethyl)-isopropyl-carbamoyl]-pyrrolidine-3-carboxylic acid] returned an IC50 of 21 µM. Compared with the last compound, the IC50 is about 1.5-fold lower. The compound `CCN(CC)C(=O)N1C[C@H](N)[C@H](C(=O)O)C1` [4-Amino-1-diethylcarbamoyl-pyrrolidine-3-carboxylic acid] returned an IC50 of 25 µM. As for `CC(C)N(CCCC(=O)O)C(=O)N1C[C@H](N)[C@H](C(=O)O)C1` [4-Amino-1-[(3-carboxy-propyl)-isopropyl-carbamoyl]-pyrrolidine-3-carboxylic acid], the figure is 19 µM; as for `CCC(CC)C(=O)N1C[C@H](N)[C@H](C(=O)O)C1` [4-Amino-1-(2-ethyl-butyryl)-pyrrolidine-3-carboxylic acid], 22 µM; as for `CCN(C(=O)N1C[C@@H](C(=O)O)[C@@H](N)[C@@H]1CNC(C)=O)C(C)C` [5-(Acetylamino-methyl)-4-amino-1-(ethyl-isopropyl-carbamoyl)-pyrrolidine-3-carboxylic acid], 7.5 µM. Regarding `CC(C)N(C(=O)N1C[C@H](N)[C@H](C(=O)O)C1)C(C)C` [4-Amino-1-diisopropylcarbamoyl-pyrrolidine-3-carboxylic acid], 4 µM corresponded to half-maximal inhibition (IC50). Regarding `CC(C)N(CCCCCO)C(=O)N1C[C@H](N)[C@H](C(=O)O)C1` [4-Amino-1-[(5-hydroxy-pentyl)-isopropyl-carbamoyl]-pyrrolidine-3-carboxylic acid], inhibition was half-maximal at 2 µM (IC50). The compound `CC(C)N(CCCCC(=O)O)C(=O)N1C[C@H](N)[C@H](C(=O)O)C1` [4-Amino-1-[(4-carboxy-butyl)-isopropyl-carbamoyl]-pyrrolidine-3-carboxylic acid] came in with a concentration for half-maximal inhibition (IC50) of 1.3 µM. Against the preceding compound, the IC50 is about 1.5-fold lower. The figure for `CC(C)N(C(=O)N1C[C@H](C(=O)O)[C@H](N=C(N)N)C1)C(C)C` [1-Diisopropylcarbamoyl-4-guanidino-pyrrolidine-3-carboxylic acid] is 13 µM. Consider `CC(C)(C)OC(=O)N1C[C@@H](N)[C@@H](C(=O)O)C1` [A-87380], for which the IC50 came out at 50 µM. `CC(C)N(CCCO)C(=O)N1C[C@H](N)[C@H](C(=O)O)C1` [4-Amino-1-[(3-hydroxy-propyl)-isopropyl-carbamoyl]-pyrrolidine-3-carboxylic acid] yielded an IC50 of 2.1 µM. This IC50 lies about 24-fold lower than the previous one.

Consider `CC(C)N(CCCN)C(=O)N1C[C@H](N)[C@H](C(=O)O)C1` [4-Amino-1-[(3-amino-propyl)-isopropyl-carbamoyl]-pyrrolidine-3-carboxylic acid], for which the midpoint of inhibition, the IC50, lay at 46 µM. Compound `CCN(C(=O)N1C[C@H](N)[C@H](C(=O)O)C1)C(C)C` [4-Amino-1-(ethyl-isopropyl-carbamoyl)-pyrrolidine-3-carboxylic acid] gave a concentration for half-maximal inhibition (IC50) of 1.6 µM. `CC(C)N(CCc1ccccn1)C(=O)N1C[C@H](N)[C@H](C(=O)O)C1` [4-Amino-1-[isopropyl-(2-pyridin-2-yl-ethyl)-carbamoyl]-pyrrolidine-3-carboxylic acid] showed an IC50 of 1.3 µM. This IC50 and that of the compound before are within 1.5-fold of each other.
